Source: patent publication US9028845B2, “Chimeric immunomodulatory compounds and methods of using the same-IV” (Dynavax Technologies Corporation, priority 2001, dated 2015)

System: human PBMCs
Experiment: Human PBMC cytokine response assay (IFN-γ and IFN-α in cell-free medium by ELISA), with or without cPLGA;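 as to IFN-α (pg/ml) mean: 20 µg/mL compound for 24 hours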;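 as to IFN-γ (pg/ml) mean: 20 µg/mL compound for 24 hours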
Type: cell-based
Conditions: for IFN-a (pg/ml) mean / IFN-g (pg/ml) mean: mean of donors 28185-28188; for IFN-a (pg/ml) ×2: mean ×2; for IFN-g (pg/ml) ×4: mean ×4; for IFN-α from human PBMC compared with parent oligonucleotide P-17, in words: low doses (e.g., 0.8 ug/ml), four individuals; for immunomodulatory activity (IFN-γ / IFN-α secretion), in words: used alone (no cPLGA)
[1] = Table 24, mean of donors 28234-28237
[2] = Table 25, mean of donors 28250-28253
[3] = Example 58, 0.8 ug/ml, mean of four individuals
[4] = Example 58, 4 ug/ml, mean of four individuals
[5] = Example 58, 20 ug/ml, mean of four individuals
[6] = mean of Donors 3-4, 20 μg/ml, 24 h

## (5′-TCGACGT-HEG)2-glycerol-HEG-5′-TTGGCCAAGCTTGGCCAA (SEQ ID NO: 116) (DNA, all phosphorothioate, methylation of C not given here; Two heptamer DNA arms joined by HEG spacers and glycerol branching to the chain) [Compound C-178]
Example 59, 0.8 ug/ml, donor 48
  IFN-α: 336 pg/mL
Example 59, 0.8 ug/ml, donor 177
  IFN-α: 1150 pg/mL
Example 59, 0.8 ug/ml, donor 272
  IFN-α: 149 pg/mL
Example 59, 0.8 ug/ml, donor 273
  IFN-α: 102 pg/mL
Example 59, 0.8 ug/ml, mean of four donors
  IFN-α mean: 434 pg/mL
Example 59, 4 ug/ml, donor 48
  IFN-α: 16300 pg/mL
Example 59, 4 ug/ml, donor 177
  IFN-α: 8304 pg/mL
Example 59, 4 ug/ml, donor 272
  IFN-α: 1677 pg/mL
Example 59, 4 ug/ml, donor 273
  IFN-α: 1732 pg/mL
Example 59, 4 ug/ml, mean of four donors
  IFN-α mean: 7003 pg/mL
Example 59, 20 ug/ml, donor 48
  IFN-α: 13946 pg/mL
Example 59, 20 ug/ml, donor 177
  IFN-α: 19973 pg/mL
Example 59, 20 ug/ml, donor 272
  IFN-α: 15050 pg/mL
Example 59, 20 ug/ml, donor 273
  IFN-α: 3971 pg/mL
Example 59, 20 ug/ml, mean of four donors
  IFN-α mean: 13235 pg/mL

## 5′-TCCA-3′-C3-5′-TGACGTT-3′-C3-5′-CCTGATGCT-3′ [Compound C-88]
Table 24, donor 28234
  IFN-α: 95 pg/mL
  IFN-γ: 5 pg/mL
Table 24, donor 28235
  IFN-α: 16 pg/mL
  IFN-γ: 21 pg/mL
Table 24, donor 28236
  IFN-α: 212 pg/mL
  IFN-γ: 17 pg/mL
Table 24, donor 28237
  IFN-α: 111 pg/mL
  IFN-γ: 477 pg/mL
[1]
  IFN-α mean: 109 pg/mL
  IFN-γ mean: 130 pg/mL

## 5′-TCGTCGT-3′-HEG-5′-TGTCGTT-3′-HEG-5′-TGTCGTT-3′ [Compound C-47]
Table 10, donor 28042
  IFN-α: 20 pg/mL
  IFN-γ: 112 pg/mL
Table 10, donor 28043
  IFN-α: 0 pg/mL
  IFN-γ: 537 pg/mL
Table 10, donor 28044
  IFN-α: 0 pg/mL
  IFN-γ: 142 pg/mL
Table 10, donor 28045
  IFN-α: 0 pg/mL
  IFN-γ: 17 pg/mL
Table 10, mean of donors
  IFN-α mean: 5 pg/mL
  IFN-γ mean: 202 pg/mL

## (5′-TCGTCGA-3′-HEG)2-glycerol-HEG-5′-AACGTTC-3′-HEG-5′-TCGACGT-3′ [Compound C-100]
Table 24, donor 28234
  IFN-α: 16 pg/mL
  IFN-γ: 27 pg/mL
Table 24, donor 28235
  IFN-α: 16 pg/mL
  IFN-γ: 183 pg/mL
Table 24, donor 28236
  IFN-α: 398 pg/mL
  IFN-γ: 490 pg/mL
Table 24, donor 28237
  IFN-α: 193 pg/mL
  IFN-γ: 1907 pg/mL
[1]
  IFN-α mean: 156 pg/mL
  IFN-γ mean: 652 pg/mL

## 5′-GsGs-3′-C3-5′-TCGTGC-3′-C3-5′-ATCGAT-3′-C3-5′-GCACGA-3′-C3-5′-GGsGsGsGsG-3′ (s = phosphorothioate linkages, otherwise linkages are phosphodiester) [Compound C-85]
Table 11, donor 28042
  IFN-α: 0 pg/mL
  IFN-γ: 17 pg/mL
Table 11, donor 28043
  IFN-α: 0 pg/mL
  IFN-γ: 13 pg/mL
Table 11, donor 28044
  IFN-α: 28 pg/mL
  IFN-γ: 315 pg/mL
Table 11, donor 28045
  IFN-α: 24 pg/mL
  IFN-γ: 134 pg/mL
Table 11, mean of donors
  IFN-α mean: 13 pg/mL
  IFN-γ mean: 120 pg/mL

## OCCOCCOCCO [Triethylene glycol]
Table 25, donor 28250
  IFN-a: 16 pg/mL
Table 25, donor 28250, polynucleotides/spacers at amounts equivalent to the CIC, spacers alone 9 uM
  IFN-g: 15 pg/mL
Table 25, donor 28251
  IFN-a: 16 pg/mL
  IFN-g: 1 pg/mL
Table 25, donor 28252
  IFN-a: 16 pg/mL
  IFN-g: 7 pg/mL
Table 25, donor 28253
  IFN-a: 16 pg/mL
  IFN-g: 1 pg/mL
[2]
  IFN-a mean: 16 pg/mL
  IFN-g mean: 6 pg/mL

## 5′-TGCTGCA-3′-C3-5′-AGCTTGC-3′-C3-5′-AGATGAT-3′ (No CG) [Compound C-86]
Donor 28185, Table 15
  IFN-a: 7 pg/mL
  IFN-g: 1 pg/mL
Donor 28186, Table 15
  IFN-a: 4 pg/mL
  IFN-g: 4 pg/mL
Donor 28187, Table 15
  IFN-a: 4 pg/mL
  IFN-g: 30 pg/mL
Donor 28188, Table 15
  IFN-a: 31 pg/mL
  IFN-g: 5 pg/mL
Table 15
  IFN-a (pg/ml) mean: 11 pg/mL
  IFN-g (pg/ml) mean: 10 pg/mL
  IFN-a (pg/ml) ×2: 22 pg/mL
  IFN-g (pg/ml) ×4: 40 pg/mL

## (5′-TCGAACGTTCGA-3′ (SEQ ID NO: 155)-HEG)3-trebler-HEG-5′-T-3′ (three copies HEG-trebler branched, HEG-T, chemistry not fully specified) [Compound C-175]
Example 58, 0.8 ug/ml, donor 1
  IFN-α: 21783 pg/mL
Example 58, 0.8 ug/ml, donor 2
  IFN-α: 16605 pg/mL
Example 58, 0.8 ug/ml, donor 3
  IFN-α: 851 pg/mL
Example 58, 0.8 ug/ml, donor 4
  IFN-α: 2874 pg/mL
[3]
  IFN-α mean: 10528 pg/mL
Example 58, 4 ug/ml, donor 1
  IFN-α: 7134 pg/mL
Example 58, 4 ug/ml, donor 2
  IFN-α: 6779 pg/mL
Example 58, 4 ug/ml, donor 3
  IFN-α: 906 pg/mL
Example 58, 4 ug/ml, donor 4
  IFN-α: 1951 pg/mL
[4]
  IFN-α mean: 4193 pg/mL
Example 58, 20 ug/ml, donor 1
  IFN-α: 2250 pg/mL
Example 58, 20 ug/ml, donor 2
  IFN-α: 732 pg/mL
Example 58, 20 ug/ml, donor 3
  IFN-α: 52 pg/mL
Example 58, 20 ug/ml, donor 4
  IFN-α: 52 pg/mL
[5]
  IFN-α mean: 771 pg/mL
  IFN-α from human PBMC compared with parent oligonucleotide P-17, in words: induce significantly more IFN-α

## 5′-TCGTCGA-3′-HEG-5′-AACGTTC-3′-HEG-5′-AGATGAT-3′ [Compound C-54]
Table 13, donor 28156
  IFN-α: 8 pg/mL
  IFN-γ: 297 pg/mL
Table 13, donor 28157
  IFN-α: 96 pg/mL
  IFN-γ: 378 pg/mL
Table 13, donor 28158
  IFN-α: 8 pg/mL
  IFN-γ: 88 pg/mL
Table 13, donor 28159
  IFN-α: 13 pg/mL
  IFN-γ: 218 pg/mL
Table 13, mean of donors
  IFN-α mean: 31 pg/mL
  IFN-γ mean: 245 pg/mL

## 5′-TCG-3′-HEG-5′-T-3′ [Compound C-68]
Donor 28185, Table 15
  IFN-a: 4 pg/mL
  IFN-g: 0 pg/mL
Donor 28186, Table 15
  IFN-a: 13 pg/mL
  IFN-g: 4 pg/mL
Donor 28187, Table 15
  IFN-a: 25 pg/mL
  IFN-g: 2 pg/mL
Donor 28188, Table 15
  IFN-a: 4 pg/mL
  IFN-g: 1 pg/mL
Table 15
  IFN-a (pg/ml) mean: 11 pg/mL
  IFN-g (pg/ml) mean: 2 pg/mL
  IFN-a (pg/ml) ×2: 23 pg/mL
  IFN-g (pg/ml) ×4: 7 pg/mL
  immunomodulatory activity (IFN-γ / IFN-α secretion), in words: neither CIC was active on its own

## 5′-ATCTCGA-3′ [Compound P-5, reference compound]
Donor 3, 20 μg/ml, 24 h
  IFN-α (pg/ml) Donor 3: 0 pg/mL
  IFN-γ (pg/ml) Donor 3: 0 pg/mL
Donor 4, 20 μg/ml, 24 h
  IFN-α (pg/ml) Donor 4: 57 pg/mL
  IFN-γ (pg/ml) Donor 4: 3 pg/mL
[6]
  IFN-α (pg/ml) mean: 29 pg/mL
  IFN-γ (pg/ml) mean: 2 pg/mL
  immunomodulatory activity (IFN-γ / IFN-α secretion), in words: did not have immunomodulatory activity

## (5′-TCGAACGTTCGA-3′ (SEQ ID NO: 155)-HEG)2-glycerol-HEG-5′-TCGAACGTTCGA-3′ (SEQ ID NO: 155) (three copies via HEG-glycerol branching, chemistry not fully specified) [Compound C-173]
Example 58, 0.8 ug/ml, donor 1
  IFN-α: 272 pg/mL
Example 58, 0.8 ug/ml, donor 2
  IFN-α: 1293 pg/mL
Example 58, 0.8 ug/ml, donor 3
  IFN-α: 1138 pg/mL
Example 58, 0.8 ug/ml, donor 4
  IFN-α: 2547 pg/mL
[3]
  IFN-α mean: 1312 pg/mL
Example 58, 4 ug/ml, donor 1
  IFN-α: 3828 pg/mL
Example 58, 4 ug/ml, donor 2
  IFN-α: 2917 pg/mL
Example 58, 4 ug/ml, donor 3
  IFN-α: 2197 pg/mL
Example 58, 4 ug/ml, donor 4
  IFN-α: 3563 pg/mL
[4]
  IFN-α mean: 3126 pg/mL
Example 58, 20 ug/ml, donor 1
  IFN-α: 14381 pg/mL
Example 58, 20 ug/ml, donor 2
  IFN-α: 8060 pg/mL
Example 58, 20 ug/ml, donor 3
  IFN-α: 66 pg/mL
Example 58, 20 ug/ml, donor 4
  IFN-α: 299 pg/mL
[5]
  IFN-α mean: 5701 pg/mL
  IFN-α from human PBMC compared with parent oligonucleotide P-17, in words: induce significantly more IFN-α

## Starburst Dendrimer ® -(5′-TGACTGTGAACGTTCGAGATGA-3′)x (X range = 3-16) (SEQ ID NO: 2) (See Ex. 24) [Compound C-102]
Donor 28185, Table 15
  IFN-a: 1880 pg/mL
  IFN-g: 158 pg/mL
Donor 28186, Table 15
  IFN-a: 187 pg/mL
  IFN-g: 43 pg/mL
Donor 28187, Table 15
  IFN-a: 109 pg/mL
  IFN-g: 101 pg/mL
Donor 28188, Table 15
  IFN-a: 4 pg/mL
  IFN-g: 6 pg/mL
Table 15
  IFN-a (pg/ml) mean: 545 pg/mL
  IFN-g (pg/ml) mean: 77 pg/mL
  IFN-a (pg/ml) ×2: 1090 pg/mL
  IFN-g (pg/ml) ×4: 307 pg/mL
Used alone
  IFN-α induction, in words: significantly more IFN-α activity than the P-6 sequence alone

## HEG-5′-TCGTCG-3′-HEG-5′-ACGTTCG-3′-HEG-5′-AGATGAT-3′-TEG (phosphodiester linkages) [Compound C-31]
Table 9, donor 28089
  IFN-α: 158 pg/mL
  IFN-γ: 0 pg/mL
Table 9, donor 28090
  IFN-α: 26 pg/mL
  IFN-γ: 0 pg/mL
Table 9, donor 28098
  IFN-α: 62 pg/mL
  IFN-γ: 0 pg/mL
Table 9, donor 28099
  IFN-α: 29 pg/mL
  IFN-γ: 2 pg/mL
Table 9, mean of donors
  IFN-α mean: 69 pg/mL
  IFN-γ mean: 0 pg/mL
Formulated with cPLGA
  activity when formulated with cPLGA, in words: good activity when formulated with cPLGA
  immunomodulatory activity (IFN-γ / IFN-α secretion), in words: inactive as a CIC alone
